Data reported in patent USRE49850E1, “N-(pyridin-2-yl)-4-(thiazol-5-yl)pyrimidin-2-amine derivatives as therapeutic compounds” (AUCENTRA THERAPEUTICS PTY LTD, priority 2015, dated 2024).
Values belong to the molecule of their own block, whether it stands above or below them.

Key:
[1] = target: CDK1B (Homo sapiens, UniProt P06493); experiment: Kinase assay CDK1B (radiometric profiling service); format: biochemical; conditions: apparent Ki calculated from Km (ATP) and IC50; read-out: CDK inhibition Ki CDK1B
Procedure, shortened: (§1)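 Compounds were diluted 1:3 over 10 concentrations (10 μM to 0.5 nM). CDK4/D1 reactions with RB-CTF substrate were started with ATP, run 40 min at 37° C, then quenched and detected by ADP-Glo luminescence. CDK7, CDK2 and CDK1 were tested radiometrically by a service. IC50 was fitted by logistic regression.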

[2] = test system: MV4-11; experiment: Cell viability assay (resazurin, leukemia cell line) MV4-11; format: cell-based, human; conditions: Homo sapiens, MV4-11, 72 h; read-out: Anti-proliferative activity GI50 MV4-11
Description: (§2) Compounds from Example 1 were subjected to a standard MTT (3-(4,5-dimethylthiazol-2-yl)-2,5-diphenyltetrazolium bromide) and resazurin assays on solid tumour cell lines and leukemia cell lines, respectively, as previously reported (Wang S et al., J Med Chem 47:1662-1675, 2004 and Diab S. et al. CheMedChem 9:962-972, 2014).

[3] = target: T1, CDK4D1 (Homo sapiens, UniProt P11802); experiment: Kinase assay CDK4/D1 (radiometric or ADP Glo); format: biochemical; conditions: apparent Ki calculated from Km (ATP) and IC50; read-out: CDK inhibition Ki CDK4D1
T1 construct: purchased Eurofins Pharma Discovery or Reaction Biology Corporation (service)
Procedure, shortened: as §1

[4] = target: CDK7H (Homo sapiens, UniProt P50613); experiment: Kinase assay CDK7H (radiometric profiling service); format: biochemical; conditions: for Ki: apparent Ki calculated from Km (ATP) and IC50, read-out: CDK inhibition Ki CDK7H
Method: Eurofins Pharma Discovery or Reaction Biology Corporation Kinase Profiler services were used to measure inhibition of CDKs and other kinases by radiometric assay. Inhibition of CDK4/D1, CDK6/D3 and CDK9/T1 were also determined in-house using ADP Glo Kinase assays (Promega Corporation, Madison, USA). Briefly, the kinase reaction for CDK4/D1 and CDK6/D3 was performed with kinase reaction buffer ([…] Tris base pH 7.5, 20 mM MgCl2, 0.4 mM DTT), 0.1 mg/ml BSA and RB-CTF substrate (retinoblastoma protein1 C-terminal fraction). For CDK9/CyclinT1, the kinase reaction was performed with standard assay buffer and Kinase Dilution Buffer and RBER-IRStide substrate. Serial dilutions of 1:3 were prepared for test compounds for 10 concentrations (from 10 μM to 0.5 nM). The kinase reactions were started by addition of ATP, incubated for 40 min at 37° C. and then stopped by adding 10 μL of ADP Glo reagent. After incubation at room temperature in the dark for 40 min, 20 μL of kinase detection reagent was added per well and incubated for 40 min. Luminescence was measured using an EnVision Multilabel plate reader (PerkinElmer, Buckinghamshire, UK). Positive and negative controls were perfonned in the presence and absence of CDK kinases, respectively. Half-maximal inhibition (IC50) values were calculated using a 4-parameter logistic non-linear regression model with Graphpad prism (Version 6.0). Apparent inhibition constants (Ki) values were calculated from Km (ATP) and IC50 values for the respective kinases.

[5] = target: T2, CDK6D3 (Homo sapiens, UniProt Q00534); experiment: Kinase assay CDK6/D3 (radiometric or ADP Glo); format: biochemical; conditions: apparent Ki calculated from Km (ATP) and IC50; read-out: CDK inhibition Ki CDK6D3
T2 construct: purchased Eurofins Pharma Discovery or Reaction Biology Corporation (service)
Procedure, shortened: (§3)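 Radiometric inhibition data for CDKs came from Eurofins or Reaction Biology profiling services; CDK4/D1 was also run in-house by ADP-Glo in […] pH 7.5, 20 mM MgCl2, 0.4 mM DTT, 0.1 mg/ml BSA with RB-CTF substrate, 40 min at 37 °C after ATP start. Ten-point 1:3 dilutions (10 μM–0.5 nM); four-parameter IC50, Ki from IC50 and ATP Km.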

[6] = target: T3, CDK9T1 (Homo sapiens, UniProt P50750); experiment: Kinase assay CDK9/T1 (radiometric or ADP Glo); format: biochemical; conditions: for Ki: apparent Ki calculated from Km (ATP) and IC50, read-out: CDK inhibition Ki CDK9T1
T3 construct: purchased Eurofins Pharma Discovery or Reaction Biology Corporation (service)
Procedure, shortened: as §3

[7] = test system: MDA-MB-453; experiment: Cell viability assay (MTT, solid tumour cell line) MDA-MB-453; format: cell-based, human; conditions: Homo sapiens, MDA-MB-453, 72 h; read-out: Anti-proliferative activity GI50 MDA-MB-453
Description: as §2

[8] = target: CDK 2A (Homo sapiens, UniProt P24941); experiment: Kinase assay CDK2A (radiometric profiling service); format: biochemical; conditions: apparent Ki calculated from Km (ATP) and IC50; read-out: CDK inhibition Ki CDK 2A
Procedure, shortened: as §1

CDK1B, sequence (P06493 whole entry): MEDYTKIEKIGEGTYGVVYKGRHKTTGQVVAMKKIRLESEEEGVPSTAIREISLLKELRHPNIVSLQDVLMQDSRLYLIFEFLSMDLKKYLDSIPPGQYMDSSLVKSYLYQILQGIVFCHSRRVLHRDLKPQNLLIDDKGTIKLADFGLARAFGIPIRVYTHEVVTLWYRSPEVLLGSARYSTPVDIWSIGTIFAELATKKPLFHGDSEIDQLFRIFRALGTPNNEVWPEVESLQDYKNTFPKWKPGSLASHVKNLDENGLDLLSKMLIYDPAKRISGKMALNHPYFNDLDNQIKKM
CDK1B, sequence (P14635 whole entry partner): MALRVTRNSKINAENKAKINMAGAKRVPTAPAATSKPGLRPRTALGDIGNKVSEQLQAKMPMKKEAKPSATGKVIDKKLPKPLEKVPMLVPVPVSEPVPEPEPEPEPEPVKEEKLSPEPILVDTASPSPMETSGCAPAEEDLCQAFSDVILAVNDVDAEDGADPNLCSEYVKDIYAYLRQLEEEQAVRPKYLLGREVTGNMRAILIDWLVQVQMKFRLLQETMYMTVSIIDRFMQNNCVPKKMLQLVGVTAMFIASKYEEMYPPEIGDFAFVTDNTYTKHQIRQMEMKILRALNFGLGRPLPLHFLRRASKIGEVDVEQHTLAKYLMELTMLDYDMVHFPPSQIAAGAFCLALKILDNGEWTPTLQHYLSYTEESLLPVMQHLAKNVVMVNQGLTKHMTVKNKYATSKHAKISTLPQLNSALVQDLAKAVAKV
T2 sequence (Q00534 whole entry): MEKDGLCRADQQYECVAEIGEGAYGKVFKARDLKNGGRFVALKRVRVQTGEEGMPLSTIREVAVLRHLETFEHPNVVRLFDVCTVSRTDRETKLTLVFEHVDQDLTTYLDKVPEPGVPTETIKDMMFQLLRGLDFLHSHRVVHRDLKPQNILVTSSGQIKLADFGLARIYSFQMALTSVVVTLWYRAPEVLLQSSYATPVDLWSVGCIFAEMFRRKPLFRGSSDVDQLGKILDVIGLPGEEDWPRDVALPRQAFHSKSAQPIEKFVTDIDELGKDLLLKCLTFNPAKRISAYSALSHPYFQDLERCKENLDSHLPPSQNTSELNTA
T2 sequence (P30281 whole entry partner): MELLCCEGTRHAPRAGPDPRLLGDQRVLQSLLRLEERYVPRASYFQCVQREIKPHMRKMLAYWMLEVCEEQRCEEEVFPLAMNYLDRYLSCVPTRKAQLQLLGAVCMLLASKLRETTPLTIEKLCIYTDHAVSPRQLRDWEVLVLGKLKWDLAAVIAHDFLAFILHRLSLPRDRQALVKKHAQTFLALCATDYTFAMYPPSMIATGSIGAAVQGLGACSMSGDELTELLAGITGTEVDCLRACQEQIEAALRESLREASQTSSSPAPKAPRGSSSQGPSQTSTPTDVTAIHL
T1 sequence (P11802 whole entry): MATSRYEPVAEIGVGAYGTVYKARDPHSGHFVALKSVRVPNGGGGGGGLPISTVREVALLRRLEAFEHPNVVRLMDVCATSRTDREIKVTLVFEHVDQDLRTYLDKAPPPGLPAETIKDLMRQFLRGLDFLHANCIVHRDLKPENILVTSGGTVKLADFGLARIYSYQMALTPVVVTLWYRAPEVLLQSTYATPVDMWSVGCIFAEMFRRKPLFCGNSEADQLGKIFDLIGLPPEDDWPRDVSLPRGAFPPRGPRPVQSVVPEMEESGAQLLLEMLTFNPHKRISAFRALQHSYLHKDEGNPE
T1 sequence (P24385 whole entry partner): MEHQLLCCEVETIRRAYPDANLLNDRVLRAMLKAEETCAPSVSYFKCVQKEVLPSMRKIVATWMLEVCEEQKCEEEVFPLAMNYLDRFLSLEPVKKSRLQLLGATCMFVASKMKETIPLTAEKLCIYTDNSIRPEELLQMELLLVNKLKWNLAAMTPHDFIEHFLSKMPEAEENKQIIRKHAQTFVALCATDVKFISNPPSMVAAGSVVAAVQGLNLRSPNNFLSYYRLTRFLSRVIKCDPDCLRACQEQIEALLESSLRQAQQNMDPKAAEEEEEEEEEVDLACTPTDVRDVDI
T3 sequence (P50750 whole entry): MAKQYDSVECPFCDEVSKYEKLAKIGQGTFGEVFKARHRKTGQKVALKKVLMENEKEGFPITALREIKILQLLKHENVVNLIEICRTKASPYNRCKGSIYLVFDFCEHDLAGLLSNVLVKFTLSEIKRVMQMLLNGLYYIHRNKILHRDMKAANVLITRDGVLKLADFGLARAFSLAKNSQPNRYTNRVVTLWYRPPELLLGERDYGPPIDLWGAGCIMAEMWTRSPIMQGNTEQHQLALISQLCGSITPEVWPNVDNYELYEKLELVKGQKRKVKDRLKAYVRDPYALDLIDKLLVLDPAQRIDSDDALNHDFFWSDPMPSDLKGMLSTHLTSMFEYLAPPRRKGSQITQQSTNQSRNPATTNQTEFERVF
T3 sequence (O60563 whole entry partner): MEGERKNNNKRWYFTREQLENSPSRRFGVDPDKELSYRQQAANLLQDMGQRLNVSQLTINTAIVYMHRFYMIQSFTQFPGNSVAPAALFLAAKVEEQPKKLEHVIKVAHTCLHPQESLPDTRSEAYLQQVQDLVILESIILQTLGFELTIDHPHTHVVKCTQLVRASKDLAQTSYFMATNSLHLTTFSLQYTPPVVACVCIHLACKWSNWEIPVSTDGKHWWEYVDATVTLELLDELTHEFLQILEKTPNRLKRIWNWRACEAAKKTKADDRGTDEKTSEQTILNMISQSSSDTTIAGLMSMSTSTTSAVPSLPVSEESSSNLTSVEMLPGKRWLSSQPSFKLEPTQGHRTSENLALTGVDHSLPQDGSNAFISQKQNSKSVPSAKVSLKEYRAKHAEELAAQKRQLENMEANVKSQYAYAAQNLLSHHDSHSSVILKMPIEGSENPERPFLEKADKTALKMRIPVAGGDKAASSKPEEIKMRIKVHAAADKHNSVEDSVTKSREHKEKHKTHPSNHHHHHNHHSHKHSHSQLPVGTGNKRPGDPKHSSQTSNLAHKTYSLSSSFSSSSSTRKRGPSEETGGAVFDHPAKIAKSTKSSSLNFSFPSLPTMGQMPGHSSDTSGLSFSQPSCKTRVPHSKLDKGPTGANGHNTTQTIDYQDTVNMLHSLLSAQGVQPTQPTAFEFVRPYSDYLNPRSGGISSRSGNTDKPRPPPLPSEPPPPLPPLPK
CDK7H, sequence (P50613 whole entry): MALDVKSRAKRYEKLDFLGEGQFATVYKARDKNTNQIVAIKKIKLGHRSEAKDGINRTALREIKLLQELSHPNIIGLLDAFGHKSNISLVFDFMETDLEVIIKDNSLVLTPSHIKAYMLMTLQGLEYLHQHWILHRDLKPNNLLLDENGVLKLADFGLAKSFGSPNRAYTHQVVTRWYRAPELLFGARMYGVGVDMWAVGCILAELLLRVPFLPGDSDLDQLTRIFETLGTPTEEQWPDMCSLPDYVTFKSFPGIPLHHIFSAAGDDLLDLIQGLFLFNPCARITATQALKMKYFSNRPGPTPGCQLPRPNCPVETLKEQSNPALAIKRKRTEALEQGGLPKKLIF
CDK7H, sequence (P51946 whole entry partner): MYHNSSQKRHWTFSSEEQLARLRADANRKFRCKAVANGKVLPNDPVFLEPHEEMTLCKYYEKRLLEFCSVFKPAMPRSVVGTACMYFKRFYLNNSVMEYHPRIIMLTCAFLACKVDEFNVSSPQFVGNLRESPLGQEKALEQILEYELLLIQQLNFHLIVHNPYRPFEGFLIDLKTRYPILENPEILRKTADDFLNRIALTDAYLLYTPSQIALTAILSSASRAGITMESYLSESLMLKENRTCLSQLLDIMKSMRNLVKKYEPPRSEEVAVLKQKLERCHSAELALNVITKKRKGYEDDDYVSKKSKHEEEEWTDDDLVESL
CDK7H, sequence (P51948 whole entry partner): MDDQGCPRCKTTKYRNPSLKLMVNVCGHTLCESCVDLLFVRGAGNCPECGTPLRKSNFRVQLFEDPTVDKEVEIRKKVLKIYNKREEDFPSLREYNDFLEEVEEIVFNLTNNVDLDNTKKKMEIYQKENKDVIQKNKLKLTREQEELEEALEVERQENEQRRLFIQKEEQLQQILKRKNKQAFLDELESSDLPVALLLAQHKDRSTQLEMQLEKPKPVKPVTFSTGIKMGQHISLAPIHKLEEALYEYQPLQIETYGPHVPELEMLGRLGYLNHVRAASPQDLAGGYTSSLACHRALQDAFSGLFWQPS

Ki [1]: > 5000 nM
GI50 [2]: 3520 ± 1040 nM
Ki [3]: 310 nM
Ki [4]: > 5000 nM
Ki [5]: 935 nM
Ki [6]: 4760 nM
GI50 [7]: > 10000 nM
Ki [8]: 3650 nM
Compound: COc1nc(C)c(-c2ccnc(Nc3ccc(N4CCN(C)CC4)cn3)n2)s1 [Compound 19, 4-(2-methoxy-4-methylthiazol-5-yl)-N-(5-(4-methylpiperazin-1-yl)pyridin-2-yl)pyrimidin-2-amine]

Ki [1]: > 5000 nM
GI50 [2]: 456 ± 66 nM
Ki [3]: 7 nM
Ki [4]: > 5000 nM
Ki [5]: 42 nM
Ki [6]: > 5000 nM
GI50 [7]: 7160 ± 886 nM
Ki [8]: 2700 nM
Compound: CSc1nc(C)c(-c2ccnc(Nc3ccc(N4CCN(C)CC4)cn3)n2)s1 [Compound 21, 4-(4-methyl-2-(methylthio)thiazol-5-yl)-N-(5-(4-methylpiperazin-1-yl)pyridin-2-yl)pyrimidin-2-amine]

Ki [1]: > 5000 nM
GI50 [2]: 2510 ± 432 nM
Ki [3]: 190 nM
remaining activity at 10 µM ([4]; compound at 10 μM, read-out: % remaining enzymatic activity at 10 μM CDK7H): 86%
Ki [5]: 1950 nM
remaining activity at 10 µM ([6]; compound at 10 μM, read-out: % remaining enzymatic activity at 10 μM CDK9T1): 80%
GI50 [7]: > 10000 nM
Ki [8]: 4760 nM
Compound: CSc1nc(C)c(-c2ccnc(Nc3ccc(N4CCN(C(C)=O)CC4)cn3)n2)s1 [Compound 22, 1-(4-(6-((4-(4-methyl-2-(methylthio)thiazol-5-yl)pyrimidin-2-yl)amino)pyridin-3-yl)piperazin-1-yl)ethan-1-one]

Ki [1]: 3990 nM
GI50 [2]: 66 ± 19 nM
Ki [3]: 1 nM
Ki [4]: > 5000 nM
Ki [5]: 15 nM
Ki [6]: 4610 nM
GI50 [7]: 4880 ± 214 nM
Ki [8]: 180 nM
Compound: Cc1nc(SC(C)C)sc1-c1ccnc(Nc2ccc(N3CCN(C)CC3)cn2)n1 [Compound 24, 4-(2-(isopropylthio)-4-methylthiazol-5-yl)-N-(5-(4-methylpiperazin-1-yl)pyridin-2-yl)pyrimidin-2-amine]

Ki [1]: > 5000 nM
GI50 [2]: 537 ± 117 nM
Ki [3]: 5 nM
Ki [4]: > 5000 nM
Ki [5]: 20 nM
Ki [6]: > 5000 nM
GI50 [7]: 514 ± 50 nM
Ki [8]: 75 nM
Compound: CC(=O)N1CCN(c2ccc(Nc3nccc(-c4sc(SC(C)C)nc4C)n3)nc2)CC1 [Compound 25, 1-(4-(6-((4-(2-(isopropylthio)-4-methylthiazol-5-yl)pyrimidin-2-yl)amino)pyridin-3-yl)piperazin-1-yl)ethan-1-one]

Ki [1]: 3100 nM
GI50 [2]: 154 ± 74 nM
Ki [3]: 578 nM
Ki [4]: > 5000 nM
Ki [5]: 3030 nM
Ki [6]: > 5000 nM
GI50 [7]: 5840 ± 279 nM
Ki [8]: 310 nM
Compound: CNc1nc(C)c(-c2ccnc(Nc3ccc(N4CCN(C(C)=O)CC4)cn3)n2)s1 [Compound 33, 1-(4-(6-((4-(4-methyl-2-(methylamino)thiazol-5-yl)pyrimidin-2-yl)amino)pyridin-3-yl)piperazin-1-yl)ethan-1-one]

Ki [1]: > 5000 nM
GI50 [2]: 11 ± 21 nM
Ki [3]: 21 nM
Ki [4]: > 5000 nM
Ki [5]: 56 nM
Ki [6]: > 5000 nM
GI50 [7]: 894 ± 91 nM
Ki [8]: 903 nM
Compound: Cc1nc(N(C)C)sc1-c1ccnc(Nc2ccc(N3CCNCC3)cn2)n1 [Compound 43, N,N,4-trimethyl-5-(2-((5-(piperazin-1-yl)pyridin-2-yl)amino)pyrimidin-4-yl)thiazol-2-amine]

Ki [1]: > 5000 nM
GI50 [2]: 92 ± 4 nM
Ki [3]: 30 nM
Ki [4]: > 5000 nM
Ki [5]: 154 nM
Ki [6]: > 5000 nM
GI50 [7]: 2100 ± 787 nM
Ki [8]: 1430 nM
Compound: Cc1nc(N(C)C)sc1-c1ccnc(Nc2ccc(N3CCN(C)CC3)cn2)n1 [Compound 45, N,N,4-trimethyl-5-(2-((5-(4-methylpiperazin-1-yl)pyridin-2-yl)amino)pyrimidin-4-yl)thiazol-2-amine]

Ki [1]: > 5000 nM
GI50 [2]: 537 ± 133 nM
Ki [3]: 87 nM
Ki [4]: > 5000 nM
Ki [5]: 234 nM
Ki [6]: > 5000 nM
GI50 [7]: 4720 ± 715 nM
Ki [8]: 976 nM
Compound: CC(=O)N1CCN(c2ccc(Nc3nccc(-c4sc(N(C)C)nc4C)n3)nc2)CC1 [Compound 48, 1-(4-(6-((4-(2-(dimethylamino)-4-methylthiazol-5-yl)pyrimidin-2-yl)amino)pyridin-3-yl)piperazin-1-yl)ethan-1-one]

The remaining lines, values behind:

Compound: CCN1CCN(Cc2ccc(Nc3nccc(-c4sc(C(C)C)nc4C)n3)nc2)CC1 [Compound 18, N-(5-((4-ethylpiperazin-1-yl)methyl)pyridin-2-yl)-4-(2-isopropyl-4-methylthiazol-5-yl)pyrimidin-2-amine]
Ki [1]: > 5000 nM
GI50 [2]: 418 ± 23 nM
Ki [3]: 28 nM
Ki [4]: > 5000 nM
Ki [5]: 394 nM
Ki [6]: > 10000 nM
GI50 [7]: 166 ± 117 nM
Ki [8]: 775 nM

Compound: CSc1nc(C)c(-c2ccnc(Nc3ccc(N4CCNCC4)cn3)n2)s1 [Compound 20, 4-(4-Methyl-2-(methylthio)thiazol-5-yl)-N-(5-(piperazin-1-yl)pyridin-2-yl)pyrimidin-2-amine]
Ki [1]: > 5000 nM
GI50 [2]: 671 ± 91 nM
Ki [3]: 5 nM
Ki [4]: > 5000 nM
Ki [5]: 20 nM
Ki [6]: 4530 nM
GI50 [7]: 3140 ± 173 nM
Ki [8]: 720 nM

Compound: Cc1nc(SC(C)C)sc1-c1ccnc(Nc2ccc(N3CCNCC3)cn2)n1 [Compound 23, 4-(2-(isopropylthio)-4-methylthiazol-5-yl)-N-(5-(piperazin-1-yl)pyridin-2-yl)pyrimidin-2-amine]
Ki [1]: > 5000 nM
GI50 [2]: 73 ± 25 nM
Ki [3]: 30 nM
Ki [4]: > 5000 nM
Ki [5]: 200 nM
Ki [6]: > 5000 nM
GI50 [7]: 461 ± 59 nM
Ki [8]: 180 nM

Compound: CNc1nc(C)c(-c2nc(Nc3ccc(N4CCNCC4)cn3)ncc2F)s1 [Compound 28, 5-(5-fluoro-2-((5-(piperazin-1-yl)pyridin-2-yl)amino)pyrimidin-4-yl)-N,4-dimethylthiazol-2-amine]
Ki [1]: 1360 nM
GI50 [2]: 12 ± 3 nM
Ki [3]: 4 nM
Ki [4]: > 5000 nM
Ki [5]: 32 nM
Ki [6]: 784 nM
GI50 [7]: 248 ± 44 nM
Ki [8]: 236 nM

Compound: CNc1nc(C)c(-c2nc(Nc3ccc(N4CCN(C(C)=O)CC4)cn3)ncc2F)s1 [Compound 35, 1-(4-(6-((5-fluoro-4-(4-methyl-2-(methylamino)thiazol-5-yl)pyrimidin-2-yl)amino)pyridin-3-yl)piperazin-1-yl)ethan-1-one]
Ki [1]: 1820 nM
GI50 [2]: 35 ± 4 nM
Ki [3]: 17 nM
Ki [4]: > 5000 nM
Ki [5]: 46 nM
Ki [6]: 4070 nM
GI50 [7]: 4910 ± 432 nM
Ki [8]: 178 nM

Compound: CNc1nc(C)c(-c2nc(Nc3ccc(N4CCOCC4)cn3)ncc2F)s1 [Compound 38, 5-(5-fluoro-2-((5-morpholinopyridin-2-yl)amino)pyrimidin-4-yl)-N,4-dimethylthiazol-2-amine]
Ki [1]: 3320 nM
GI50 [2]: 69 ± 5 nM
Ki [3]: 5 nM
Ki [4]: > 5000 nM
Ki [5]: 30 nM
Ki [6]: > 5000 nM
GI50 [7]: 5410 ± 801 nM
Ki [8]: 100 nM

Compound: Cc1nc(N(C)C)sc1-c1nc(Nc2ccc(N3CCNCC3)cn2)ncc1F [Compound 44, 5-(5-fluoro-2-((5-(piperazin-1-yl)pyridin-2-yl)amino)pyrimidin-4-yl)-N,N,4-trimethylthiazol-2-amine]
Ki [1]: > 5000 nM
GI50 [2]: 48 ± 4 nM
Ki [3]: 4 nM
Ki [4]: > 5000 nM
Ki [5]: 40 nM
Ki [6]: > 5000 nM
GI50 [7]: 237 ± 44 nM
Ki [8]: 335 nM
